Source: paper PMC5570900, “Exploiting a novel conformational switch to control innate immunity mediated by complement protein C3a” (Nature Communications, 2017)

Target: T1, C3aR (Homo sapiens, UniProt Q16581)
T1 sequence (Q16581 1-482): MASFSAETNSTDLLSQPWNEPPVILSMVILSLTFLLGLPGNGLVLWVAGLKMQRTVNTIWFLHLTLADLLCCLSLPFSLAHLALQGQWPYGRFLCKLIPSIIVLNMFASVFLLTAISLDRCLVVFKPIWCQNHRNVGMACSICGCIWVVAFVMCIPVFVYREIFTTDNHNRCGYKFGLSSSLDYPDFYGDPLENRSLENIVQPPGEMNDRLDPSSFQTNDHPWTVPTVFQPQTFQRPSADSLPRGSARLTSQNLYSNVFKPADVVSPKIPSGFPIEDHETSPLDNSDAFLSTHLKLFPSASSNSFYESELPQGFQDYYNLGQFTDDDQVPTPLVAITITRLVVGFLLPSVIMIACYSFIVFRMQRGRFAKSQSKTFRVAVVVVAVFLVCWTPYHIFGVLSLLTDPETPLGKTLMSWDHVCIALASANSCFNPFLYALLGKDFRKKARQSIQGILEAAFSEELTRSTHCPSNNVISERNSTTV
Assay: Intracellular Ca2+ release in human monocyte-derived macrophages (agonist mode)
Format: cell-based
Design: Concentration-dependent Ca^2+ release in human monocyte-derived macrophages (HMDMs); endogenous in cells; host or cells: primary human monocyte-derived macrophages (HMDMs)
Details: HMDMs, n ≥ 3, ± SEM
Experimental: HMDMs were isolated using Ficoll-paque density centrifugation (GE Healthcare Bio-Science, Uppsala, Sweden) from buffy coat (of anonymous human donors) provided by the Australian Red Cross Blood Service, Brisbane. CD14^+ monocytes were positively selected using CD14 MicroBeads (Miltenyi Biotech, Auburn, USA)[40], [41]. CD14^+ monocytes were differentiated to HMDMs using 100 ng/mL of recombinant human macrophage colony-stimulating factor (PeptroTech, Rocky Hill, USA) for 7 days in Iscove’s modified Dulbecco’s media supplemented with 10% fetal bovine serum, penicillin (100 U/mL), streptomycin (100 µg/mL) and L-glutamine (2 mM). HMDMs were supplemented after 5 days with fresh medium containing 10 ng/ml macrophage colony-stimulating factor and collected by gentle scraping on day 7.
HMDMs were seeded to a 96-well clear-bottom black-wall assay plate at a density of 5 × 10^4 cells per well and allowed to adhere overnight. Prior to assay, cells were incubated with dye-loading buffer (Hank’s balance salt solution (HBSS) buffer, 4 μM Fluo-3 AM, 25 μl Pluronic acid F-127 and 1% fetal bovine serum) for 1 h at 37 °C. Cells were then washed once with assay buffer (HBSS supplemented with 2.5 mM probenecid and 20 mM HEPES, pH 7.4). Intracellular calcium release was monitored using a fluorescence imaging plate reader (excitation 495 nm, emission 520 nm). The percentage responses were plotted against logarithmic concentrations of each test compound[42].

Q: How did the EC50 turn out when `Cc1[nH]c(C(c2ccccc2)c2ccccc2)nc1C(=O)N[C@@H](CCCNC(=N)N)C(=O)O` [Compound 3] was run?
A: 22 ± 8 nM
